Measured values: patent US9930890B2 (priority 2010, dated 2018)

Key:
Peronospora brassicae = test: Peronospora test (oilseed rape seeds)/seed treatment; assay type: in vivo; settings: seed treatment, dose 50 g/dt, infected leaf area per plant after 7 days incubation, 0% = control, 100% = no disease
Method: Peronospora Test (Oilseed Rape Seeds)/Seed Treatment
The test was conducted under greenhouse conditions.
Oilseed rape seeds treated with an inventive active compound or a combination of inventive active compounds dissolved in N-methyl-2-pyrrolidone and diluted with water to the desired dose were sown in 6*6 cm vessels. The vessels contain 4 cm of a 1:1 mixture of steam-treated field soil and sand. The plants grew at 10° C.
14-day-old plants were inoculated with an aqueous spore suspension of Peronospora brassicae. The vessels containing the plants were incubated in a greenhouse at a temperature of 15° C. and a relative air humidity of 100% for 7 days.
The assessment of the test included the evaluation of the infected leaf area per plant. 0% means an efficiency corresponding to that of the control, while an efficiency of 100% means that no disease is observed.

Plasmopara viticola = test: Plasmopara test (grapevine)/protective; assay type: in vivo; settings: grapevine young plants, protective spray, active ingredient concentration 10 ppm, evaluation 6 days after inoculation; 0% = control, 100% = no infection
Method: Plasmopara Test (Grapevine)/Protective
To produce an appropriate active ingredient formulation, 1 part by weight of active ingredient is mixed with the specified amounts of solvent and emulsifier, and the concentrate is diluted with water to the desired concentration.
To test for protective efficacy, young plants are sprayed with the active ingredient formulation at the stated application rate. After the spray coating has dried on, the plants are inoculated with an aqueous spore suspension of Plasmopara viticola and then remain in an incubation cabin at approx. 20° C. and 100% relative air humidity for 1 day. Subsequently, the plants are placed in a greenhouse at approx. 21° C. and approx. 90% air humidity for 4 days. The plants are then moistened and placed in an incubation cabin for 1 day.
Evaluation follows 6 days after the inoculation. 0% means an efficacy which corresponds to that of the control, whereas an efficacy of 100% means that no infection is observed.
In this test, the following inventive compounds show, at an active ingredient concentration of 10 ppm, an efficacy of 70% or more: […]

Phytophthora infestans = assay type: in vivo; settings: tomato plants, protective spray, active ingredient concentration 100 ppm, evaluation 7 days after inoculation; 0% = control, 100% = no infection
[1] = for logp [a]: pH 2.7; for logp [b]: pH 7.8

Row | SMILES | Eff. % (Peronospora brassicae) [%] | Eff. % (Plasmopara viticola) [%] | Eff. % (Phytophthora infestans) [%] | logp [a] [1] | logp [b] [1] | chromatographic logP (physchem; pH 2.7) | chromatographic logP (physchem; pH 7.8)
1 | O=C(Cn1nc(C(F)F)cc1C(F)F)N1CCC(c2nc(C3=NOC(c4ccccc4C=NO)C3)cs2)CC1 (mixture of isomers) [I-4] | 92 | 100 | 100 | – | – | – | –
2 | Cc1cc(C(F)(F)F)nn1CC(=O)N1CCC(c2nc(C3=NOC(c4ccccc4C=NO)C3)cs2)CC1 (mixture of isomers) [I-38] | 86 | 95 | 100 | – | – | – | –
3 | CON=Cc1cccc(F)c1C1CC(c2csc(C3CCN(C(=O)Cn4nc(C(F)F)cc4C(F)F)CC3)n2)=NO1 (mixture of isomers) [I-60] | 95 | 100 | 84 | 3.49[a], | 3.38[b] | – | –
4 | Cc1cc(C(F)(F)F)nn1CC(=O)N1CCC(c2nc(C3=NOC(c4ccccc4OS(=O)(=O)C4CC4)C3)cs2)CC1 (racemic) [I-61] | 90 | 100 | 89 | 3.29[a], | 3.31[b] | – | –
5 | Cc1cc(C(F)(F)F)nn1CC(=O)N1CCC(c2nc(C3=NOC(c4ccccc4OS(C)(=O)=O)C3)cs2)CC1 (racemic) [I-62] | 90 | 100 | 89 | 3.07[a], | 2.98[b] | – | –
6 | C[Si](C)(C)C#CCOc1ccccc1C1CC(c2csc(C3CCN(C(=O)Cn4nc(C(F)F)cc4C(F)F)CC3)n2)=NO1 (stereo not drawn) [I-1, 2-[3,5-Bis(difluoromethyl)-1H-pyrazol-1-yl]-1-(4-{4-[5-(2-{[3-(trimethylsilyl)prop-2-yn-1-yl]oxy}phenyl)-4,5-dihydro-1,2-oxazol-3-yl]-1,3-thiazol-2-yl}piperidin-1-yl)ethanone] | – | – | – | – | – | 4.71 | 4.58
7 | CC(C)(C)OC(=O)Nc1ccc(C2CC(c3csc(C4CCN(C(=O)Cn5nc(C(F)F)cc5C(F)F)CC4)n3)=NO2)cc1 (stereo not drawn) [I-17, tert-Butyl (4-{3-[2-(1-([3,5-bis(difluoromethyl)-1H-pyrazol-1-yl]acetyl}piperidin-4-yl)-1,3-thiazol-4-yl]-4,5-dihydro-1,2-oxazol-5-yl)phenyl)carbamate] | – | – | – | – | – | 3.45 | 3.46
8 | CON=Cc1ccccc1C1CC(c2csc(C3CCN(C(=O)Cn4nc(C(F)F)cc4C(F)F)CC3)n2)=NO1 (stereo not drawn) [I-26, 2-{3-[2-(1-{[3,5-Bis(difluoromethyl)-1H-pyrazol-1-yl]acetyl}piperidin-4-yl)-1,3-thiazol-4-yl]-4,5-dihydro-1,2-oxazol-5-yl}benzaldehyde O-methyloxime] | – | 100 | – | – | – | 3.59 | –
9 | CON=Cc1ccccc1C1CC(c2csc(C3CCN(C(=O)Nc4cc(Cl)ccc4C)CC3)n2)=NO1 (stereo not drawn) [I-41, N-(5-Chloro-2-methylphenyl)-4-[4-(5-{2-[(methoxyimino)methyl]phenyl}-4,5-dihydro-1,2-oxazol-3-yl)-1,3-thiazol-2-yl]piperidine-1-carboxamide] | – | 81 | – | – | – | 3.95 | –
10 | CCS(=O)(=O)Oc1ccccc1C1CC(c2csc(C3CCN(C(=O)Cn4nc(C(F)F)cc4C(F)F)CC3)n2)=NO1 (stereo not drawn) [I-65] | 90 | 100 | 100 | 3.1[a], | 3.09[b] | – | –
11 | CS(=O)(=O)Oc1ccccc1C1CC(c2csc(C3CCN(C(=O)Cn4nc(C(F)F)cc4C(F)F)CC3)n2)=NO1 (stereo not drawn) [I-124] | 100 | 100 | 100 | 2.86[a], | 2.86[b] | – | –
